From patent US20240317686A1, “RORyT MODULATOR, AND PREPARATION METHOD THEREFOR AND APPLICATION THEREOF” (SHANGHAI PHARMACEUTICALS HOLDING CO., LTD., priority 2020, published 2024) come the findings set out here.

The assay addresses T1, RORγt (Homo sapiens, UniProt P51449).
T1 construct: Prepare 4×RORgt-LBD in 1× buffer
T1 sequence (P51449 269-508 limits assumed): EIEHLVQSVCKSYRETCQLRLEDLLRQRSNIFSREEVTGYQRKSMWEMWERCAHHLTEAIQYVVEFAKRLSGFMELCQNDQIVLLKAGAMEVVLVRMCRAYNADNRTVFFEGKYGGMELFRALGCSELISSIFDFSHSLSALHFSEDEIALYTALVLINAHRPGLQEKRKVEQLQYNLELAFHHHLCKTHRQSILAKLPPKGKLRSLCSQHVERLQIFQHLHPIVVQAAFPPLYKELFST
Nature of the assay: Fluorescence resonance energy transfer (FRET) assay of inhibitory activity on RORγt. It is filed as biochemical. Particulars: RORgt-LBD GST with SRC peptide. The procedure:
Fluorescence resonance energy transfer (FRET) experiment was performed to assay the inhibitory activity of the compound of the present invention on RORγt.
1) Preparation of DMSO stock solutions of the compounds: All compounds were dissolved in DMSO to prepare 10 mM stock solutions.
2) Compound storage: After the compound was dissolved in DMSO, the solution can be stored in a desiccator at room temperature for three months. For long-term storage, the solution should be put in a −20° C. refrigerator.
3) Preparation of working solution: • a) Positive control compound AZD0284: Starting from 500 µM, the solution was diluted serially by 3-folds with DMSO to obtain a 10-concentration gradient, each concentration with 3 replicate wells. 2 wells were pipetted. The gradiently diluted compound was diluted in a reaction buffer to obtain a 4× working solution (starting from 40 μM, diluted gradiently by 3-folds) of the positive control compound. • b) Compounds to be tested: Starting from 500 μM, the solution was diluted serially by 3-folds with DMSO to obtain a 10-concentration gradient, each concentration with 3 replicate wells. 2 wells were pipetted. The gradiently diluted compound was diluted in a reaction buffer to obtain a 4× working solution ([…], diluted gradiently by 3-folds) of the compounds to be tested. • c) Prepare a 4× negative control (8% DMSO). • d) Centrifuge the plate at 1000 rpm for 1 min.
1) Prepare 4× serially diluted compounds in 1× buffer.
2) Add 5 μl of the 4× serially diluted compound (prepared in step 1) to a 384 assay plate (784075, Greiner).
3) Prepare 4×RORgt-LBD in 1× buffer.
4) Add 5 μl of the 4×RORgt-LBD (prepared in step 3) to the 384 assay plate (prepared in step 2).
5) Incubate the assay plate for 15 min at room temperature, protected from light.
6) Prepare a 2× mixture of SRC, anti-GST Eu and streptavidin-d2 in 1× […].
7) Add 10 μl of the 2× mixture (prepared in step 6) to the 384 assay plate (prepared in step 4).
8) Centrifuge the 384 assay plates at 1000 g for 1 min.
9) Incubate for 3 h at room temperature, protected from light.
10) Read the plate at wavelengths of 665 nm and 615 nm on an Envision 2104 plate reader.
Relative ratio (RR): Calculate the relative ratio (response value at 665 nm/response value at 615 nm-response value in blank background) of each well.
Inhibition rate %=[1−(fluorescence detection value of the compound−fluorescence detection average of the positive compound)/(fluorescence detection average of the negative control−fluorescence detection average of the positive compound)]×100
Calculate the IC50 and dose-response curve of the compound: The IC50 and dose-response curve of the compound were obtained via Graphpad 8.0 by calculating the inhibition rate of the compound and the log value of the compound concentration.
On to `CCS(=O)(=O)c1ccc(CC(=O)Nc2ccc(C(=O)C3(c4ccc(Cl)cc4)CC(F)(F)C3)nc2)cc1` [Compound I-35], for which the concentration for half-maximal inhibition (IC50) fell in the range of 1 to 10 nM.

`CCS(=O)(=O)c1ccc(CC(=O)Nc2ccc(C(=O)C(C)(C)c3nccs3)nc2)cc1` [Compound I-36] showed a half-inhibitory concentration (IC50) of 10 to 50 nM.

`CCS(=O)(=O)c1ccc(CC(=O)Nc2ccc(C(=O)C(C)(C)n3cc(C)cn3)nc2)cc1` [Compound I-37] yielded a 50% inhibitory concentration (IC50) of 100 to 1000 nM.

As for `CCS(=O)(=O)c1ccc(CC(=O)Nc2ccc(C(=O)C(C)(C)n3ccc(C)n3)nc2)cc1` [Compound I-38], the IC50 is above 1000 nM.

As to `CCS(=O)(=O)c1ccc(CC(=O)Nc2ccc(C(=O)C(F)(F)c3ccc(Cl)cc3)nc2)cc1` [Compound I-39, N-(6-(2-(4-chlorophenyl)-2,2-difluoroacetyl)pyridin-3-yl)-2-(4-(ethylsulfonyl)phenyl)acetamide], the IC50 was above 1000 nM.

The compound `CCS(=O)(=O)c1ccc(CC(=O)Nc2ccc(C(=O)C(C)(C)c3cc(C#N)ccn3)nc2)cc1` [Compound I-40, N-(6-(2-(4-cyanopyridin-2-yl)-2-methylpropionyl)pyridin-3-yl)-2-(4-(ethylsulfonyl)phenyl)acetamide] showed an IC50 of 1 to 10 nM.

`CCS(=O)(=O)c1ccc(CC(=O)Nc2ccc(C(=O)C(C)(C)c3ncc(F)cc3F)nc2)cc1` [Compound I-41, N-[6-[2-(3,5-difluoro-2-pyridyl)-2-methyl-propionyl]-3-pyridyl]-2-(4-ethylsulfonylphenyl)acetamide] yielded an IC50 of 1 to 10 nM.

As to `CCn1cc(C(C)(C)C(=O)c2ccc(NC(=O)Cc3ccc(S(=O)(=O)CC)cc3)cn2)cn1` [Compound I-42, N-(6-(2-(1-ethyl-1H-pyrazol-4-yl)-2-methylpropionyl)pyridin-3-yl)-2-(4-(ethylsulfonyl)phenyl) acetamide], the IC50 fell in the range of 10 to 50 nM.

`[2H]C([2H])([2H])n1cc(C(C)(C)C(=O)c2ccc(NC(=O)Cc3ccc(S(=O)(=O)CC)cc3)cn2)cn1` [Compound I-43, 2-(4-(ethylsulfonyl)phenyl)-N-(6-(2-methyl-2-(1-(methyl-D3)-1H-pyrazol-4-yl)propionyl)pyridin-3-yl)acetamide] came in with a concentration for half-maximal inhibition (IC50) of 10 to 50 nM.

Compound `CCS(=O)(=O)c1ccc(CC(=O)Nc2ccc(C(=O)C(C)(C)c3ncccc3F)nc2)cc1` [Compound I-44, 2-(4-(ethylsulfonyl)phenyl)-N-(6-(2-(3-fluoropyridin-2-yl)-2-methylpropionyl)pyridin-3-yl)acetamide] displayed an IC50 of 1 to 10 nM.

`CCS(=O)(=O)c1ccc(CC(=O)Nc2ccc(C(=O)C3(c4ccccn4)CC3)nc2)cc1` [Compound I-45, 2-(4-(ethylsulfonyl)phenyl)-N-(6-(1-(pyridin-2-yl)cyclopropane-1-carbonyl)pyridin-3-yl)acetamide] returned an IC50 of 100 to 1000 nM.

`CCS(=O)(=O)c1ccc(CC(=O)Nc2ccc(C(=O)C3(c4ccccn4)CCC3)nc2)cc1` [Compound I-46, 2-(4-(ethylsulfonyl)phenyl)-N-(6-(1-(pyridin-2-yl)cyclobutane-1-carbonyl)pyridin-3-yl)acetamide] had an IC50 of 10 to 50 nM.

In turn, `CNS(=O)(=O)c1ccc(CC(=O)Nc2ccc(C(=O)C(C)(C)c3ccc(F)c(Cl)c3)nc2)cc1` [Compound I-47] displayed an IC50 of 1 to 10 nM.

With `CCS(=O)(=O)c1ccc(CC(=O)Nc2ccc(C(=O)C(C)(C)c3ccc(C)nc3)nc2)cc1` [Compound I-48, 2-(4-(ethylsulfonyl)phenyl)-N-(6-(2-methyl-2-(6-methylpyridin-3-yl)propionyl)pyridin-3-yl)acetamide], the IC50 fell in the range of 50 to 100 nM.

`CCS(=O)(=O)c1ccc(CC(=O)Nc2ccc(C(=O)C(C)(C)c3ccc(C(F)(F)F)nc3)nc2)cc1` [Compound I-50] came in with a 50% inhibitory concentration (IC50) of 50 to 100 nM.

In turn, `CCS(=O)(=O)c1ccc(CC(=O)Nc2ccc(C(=O)C(C)(C)c3ccnc(C(F)(F)F)c3)nc2)cc1` [Compound I-52] gave an IC50 of 1 to 10 nM.

Take `CCS(=O)(=O)c1ccc(CC(=O)Nc2ccc(C(=O)C3(c4ccccn4)CC(F)(F)C3)nc2)cc1` [Compound I-54, N-(6-(3,3-difluoro-1-(pyridin-2-yl)cyclobutane-1-carbonyl)pyridin-3-yl)-2-(4-(ethylsulfonyl)phenyl)acetamide]: the IC50 fell in the range of 1 to 10 nM.

Consider `CCS(=O)(=O)c1ccc(CC(=O)Nc2ccc(C(=O)C(C)(C)c3cnc(C)nc3)nc2)cc1` [Compound I-55], for which the concentration for half-maximal inhibition (IC50) was 100 to 1000 nM.

`CCS(=O)(=O)c1ccc(CC(=O)Nc2ccc(C(=O)C(C)(C)c3nc(C)c(C)o3)nc2)cc1` [Compound I-56, N-(6-(2-(4,5-dimethyloxazol-2-yl)-2-methylpropionyl)pyridin-3-yl)-2-(4-(ethylsulfonyl)phenyl) acetamide] showed an IC50 of 10 to 50 nM.

The compound `CCS(=O)(=O)c1ccc(CC(=O)Nc2ccc(C(=O)C(C)(C)c3cccc(C)n3)nc2)cc1` [Compound I-57] returned a concentration for half-maximal inhibition (IC50) of 1 to 10 nM.

In turn, `CCS(=O)(=O)c1ccc(CC(=O)Nc2ccc(C(=O)C(C)(C)c3cc(Br)ccn3)nc2)cc1` [Compound I-58, N-(6-(2-(4-bromopyridin-2-yl)-2-methylpropionyl)pyridin-3-yl)-2-(4-(ethylsulfonyl)phenyl)acetamide] displayed a half-inhibitory concentration (IC50) of 1 to 10 nM.

The compound `CCS(=O)(=O)c1ccc(CC(=O)Nc2ccc(C(=O)C(C)(C)c3ncc(C)cn3)nc2)cc1` [Compound I-59, 2-(4-(ethylsulfonyl)phenyl)-N-(6-(2-methyl-2-(5-methylpyrimidin-2-yl)propionyl)pyridin-3-yl) acetamide] returned an IC50 of 10 to 50 nM.

`CCS(=O)(=O)c1ccc(CC(=O)Nc2ccc(C(=O)C3(c4cnn(C)c4)CC3)nc2)cc1` [Compound I-60, 2-(4-(ethylsulfonyl)phenyl)-N-(6-(1-(1-methyl-1H-pyrazol-4-yl)cyclopropane-1-carbonyl)pyridin-3-yl)acetamide] displayed an IC50 of 100 to 1000 nM.

In turn, `CCS(=O)(=O)c1ccc(CC(=O)Nc2ccc(C(=O)C(C)(C)c3cccc(F)n3)nc2)cc1` [Compound I-61] displayed an IC50 of 1 to 10 nM.

`CCS(=O)(=O)c1ccc(CC(=O)Nc2ccc(C(=O)C(C)(C)c3nc(C)co3)nc2)cc1` [Compound I-62] yielded a half-inhibitory concentration (IC50) of 50 to 100 nM.

On to `CNS(=O)(=O)c1ccc(CC(=O)Nc2ccc(C(=O)C(C)(C)c3ccccn3)nc2)cc1` [Compound I-63, N-(6-(2-methyl-2-(pyridin-2-yl)propionyl)pyridin-3-yl)-2-(4-(N-methylsulfamoyl)phenyl)acetamide], for which the half-inhibitory concentration (IC50) was 10 to 50 nM.

Take `CN(C)S(=O)(=O)c1ccc(CC(=O)Nc2ccc(C(=O)C(C)(C)c3ccccn3)nc2)cc1` [Compound I-64, 2-(4-(N,N-dimethylsulfamoyl)phenyl)-N-(6-(2-methyl-2-(pyridin-2-yl)propionyl)pyridin-3-yl)acetamide]: the IC50 was above 1000 nM.

Take `CCS(=O)(=O)c1ccc(CC(=O)Nc2ccc(C(=O)C(C)(C)c3cccc(C#N)n3)nc2)cc1` [Compound I-65]: the IC50 lay within 1 to 10 nM.

For `CCS(=O)(=O)c1ccc(CC(=O)Nc2ccc(C(=O)C3(c4ccc(F)cc4)CC(F)(F)C3)nc2)cc1` [Compound I-66], the IC50 was in the range of 1 to 10 nM.

In turn, `CN(C)S(=O)(=O)c1ccc(CC(=O)Nc2ccc(C(=O)C3(c4ccc(F)cc4)CC(F)(F)C3)nc2)cc1` [Compound I-67] registered an IC50 of 100 to 1000 nM.

The compound `CCS(=O)(=O)c1ccc(CC(=O)Nc2ccc(C(=O)C3(c4ccc(F)cn4)CC3)nc2)cc1` [Compound I-68, 2-(4-(ethylsulfonyl)phenyl)-N-(6-(1-(5-fluoropyridin-2-yl)cyclopropane-1-carbonyl)pyridin-3-yl)acetamide] showed a concentration for half-maximal inhibition (IC50) of 100 to 1000 nM.

For the compound `CCC(C(=O)c1ccc(NC(=O)Cc2ccc(S(=O)(=O)CC)cc2)cn1)c1ccccn1` (stereo not drawn) [Compound I-69], the IC50 lay in the range of 10 to 50 nM.

Regarding `CCS(=O)(=O)c1ccc(CC(=O)Nc2ccc(C(=O)C(C)(C)c3ccccn3)cn2)cc1` [Compound I-71, 2-(4-(ethylsulfonyl)phenyl)-N-(5-(2-methyl-2-(pyridin-2-yl)propionyl)pyridin-2-yl)acetamide], the concentration for half-maximal inhibition (IC50) lay within 50 to 100 nM.

As usually defined, the IC50 is the concentration that inhibits the measured activity by half. A lower IC50 goes with greater potency in that assay.
